Data from patent US20170367338A1, “COMPOSITIONS AND METHODS FOR IMPROVING AGRONOMIC CHARACTERISTICS OF PLANTS” (MONSANTO TECHNOLOGY LLC, priority 2014, published 2017).
Where two headings read alike, the source gives them in different places. Marks after values point to notes of the source that are not given here.

Experiments:
[1] = tested on: soybean cyst nematode (SCN); assay: SCN greenhouse sand assay on soybean plants; type: in vivo; conditions: Glycine max, 672 h, read-out: percent control (cyst number reduction) relative to the control blank treatment
root knot nematode (RKN) = assay: RKN greenhouse soil assay on cucumber plants; type: in vivo; conditions: for percent control (galling reduction) relative to the control blank treatment: 0 day treatment
Text: Cucumber seeds are planted in a sandy soil mixture in two inch square plastic pots. When the cotyledons are fully opened and just as the first leaf begins to emerge, usually 7 days after planting, chemistry for the 7 day treatment is applied. One week later the chemistry for the 0 day treatment is applied. Separate plants are used for each application. The plants are generally in the 1-2 leaf stage now. At least four hours after the chemistry application the pots are inoculated with root knot nematode (RKN) eggs. Plants are rated for galling 14 days after the egg inoculation.
One milligram of chemistry per four pots is equal to one kilogram per hectare of chemical. A standard test uses four replications. For rates above 2 kg/ha, the desired amount of chemical is weighed into a 30 ml vial (example: 8 kg/ha rate =8 mg chemical in 30 ml vial). The chemical is dissolved in 2 ml of appropriate solvent, generally acetone. For rates below 2 kg/ha, 2 milligrams of chemistry is weighed into the vial and dissolved in 2 ml of the solvent. The appropriate amount of chemical concentrate is then pipetted into a separate 30 ml vial and solvent is added to bring the volume to 2 ml (example 0.5 kg/ha=0.5 ml of concentrate+1.5 ml solvent). Each dissolved concentrate is then brought to a total of 20 milliliters using 0.05% Triton X 100 surfactant solution.
Pots to be treated are moist but not saturated. To each of four pots, five milliliters of the appropriate chemical solution is pipetted to the media surface making sure to avoid contact with the base of the plant. Immediately following chemical application, using a mist nozzle, the pot surface is wetted sufficiently to saturate the pot watering in the chemistry. The chemical application is done in the morning.
Nematode eggs, either SCN or RKN, are added to distilled water to create a concentration of 1000 vermiform eggs […]. At least four hours after chemical treatment the eggs are applied to the treated pots plus non-treated check plants. A small hole about 1 cm deep is punched into the pot surface. One milliliter of the nematode egg slurry is pipetted into the hole. Immediately afterwards the hole is gently covered. Watering of the test plants is then restricted to only water as needed to prevent wilt for a period of 24 hours. After the 24 hour restricted watering, normal sub-irrigation watering is done for the duration of the test.

root knot nematode = assay: Pre-plant incorporated (PPI) greenhouse test of root knot nematode on cucumber plants; type: in vivo; conditions: for pest or weed control at 4000 g/ha: 4 kg/ha, read-out: percent control (galling reduction), 4 kg/ha rate; for pest or weed control at 8000 g/ha: 8 ka/ha, read-out: percent control (galling reduction), 8 ka/ha rate
Method in brief: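 Compound in acetone, diluted in 0.05% X100, was mixed into a field soil/sand mix at doses simulating 8, 4 and 2 kg/ha incorporated 15 cm deep, with 4 pots per treatment. Cucumber was seeded and root knot nematode eggs were applied 7, 14 or 21 days after soil treatment. Harvest followed 14 days after inoculation.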

[2] = tested on: Heterodera glycines (SCN); assay: Seed treatment test of soybean cyst nematode on soybean; type: in vivo; conditions: Heterodera glycines, 672 h, test a, read-out: percent cyst reduction relative to control blank treatment
Method in brief: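 Seeds (1 g cucumber for RKN, soybean for SCN) coated with compound in 500 ul acetone, air-dried, sown in sandy soil. Pots inoculated 3 days later with 1000 eggs per pot. Galling rated 14 days (RKN) or 28 days (SCN) after inoculation.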

caspase-3 = assay: Caspase-3 activity in H4IIE cells (DEVD-AMC); type: cell-based; conditions: rat hepatoma derived H4IIE cells, concentrations up to 300 μM
Experimental: To evaluate whether the compound classes of this invention are able to induce apoptosis, caspase-3 activity was determined after compound exposure in rat hepatoma derived H4IIE cells using a caspase substrate (DEVD, Asp-Glu-Val-Asp) labeled with a fluorescent molecule, 7-Amino-4-methylcoumarin (AMC). Caspase 3 cleaves the tetrapeptide between D and AMC, thus releasing the fluorogenic […] AMC. Following the test article exposure to cells in 96-well plates, medium was aspirated from plates and PBS added to each well. Plates were stored at −80° C. to lyse cells and store samples until further analysis. On the day of analysis, plates were removed from freezer and thawed. Caspase buffer with fluorescent substrate was added to each well and incubated at room temperature for one hour. AMC release was measured in a spectrofluorometer at an excitation wavelength of 360 nm and an emission wavelength of 460 nm. Values are expressed as relative fluorescent units (RFU).

[3] = 168 h, seven day pre-plant incorporated
[4] = 336 h, fourteen day pre-plant incorporated, test a
[5] = 504 h, twenty one day pre-plant incorporated
[6] = fourteen day pre-plant incorporated, test a

## c1ccc(-c2noc(-c3cccs3)n2)cc1 [compound 1822]
[1]; 2 kg/ha, test a
  pest or weed control at 2000 g/ha: 100%
Root knot nematode (RKN); 0.05 kg/ha, test a
  percent control (galling reduction) relative to the control blank treatment: 7^a percent
Root knot nematode (RKN); 0.25 kg/ha, test a
  percent control (galling reduction) relative to the control blank treatment: 60%
Root knot nematode (RKN); Acetone formulation (10% acetone in 0.05% Triton X 100), 1 mg/kg
  percent control (galling reduction), Acetone 1 mg/kg: 94%
Root knot nematode; [3]
  pest or weed control at 4000 g/ha: 99%
  pest or weed control at 8000 g/ha: 99%
Root knot nematode; [4]
  pest or weed control at 4000 g/ha: 97%
Root knot nematode; [5]
  pest or weed control at 4000 g/ha: 82%
  pest or weed control at 8000 g/ha: 95%
Root knot nematode; [6]
  percent control (galling reduction), 2 kg/ha rate: 67^a percent
  pest or weed control at 8000 g/ha: 100%
[2]; 0.375 mg ai/gram seed
  pest or weed control at 0.375 mg/g: 58%
[2]; 1.5 mg ai/gram seed
  pest or weed control at 1.5 mg/g: 70%
caspase-3
  induction of caspase-3: no induction of caspase-3

## Cc1cc(Cl)ccc1-c1noc(-c2ccco2)n1 [compound 5823]
[1]; 0.1 kg/ha, test d
  pest or weed control at 100 g/ha: 38%
[1]; 0.25 kg/ha, test d
  pest or weed control at 250 g/ha: 69%
Root knot nematode (RKN); 0.1 kg/ha, test a
  percent control (galling reduction) relative to the control blank treatment: 85%
Root knot nematode (RKN); 0.25 kg/ha, test c
  percent control (galling reduction) relative to the control blank treatment: 98%
Root knot nematode; [4]
  pest or weed control at 4000 g/ha: 98%
Root knot nematode; 336 h, fourteen day pre-plant incorporated, test b
  pest or weed control at 4000 g/ha: 94%
Root knot nematode; [6]
  percent control (galling reduction), 2 kg/ha rate: 85^a percent
  pest or weed control at 8000 g/ha: 100%
Root knot nematode; fourteen day pre-plant incorporated, test b
  pest or weed control at 8000 g/ha: 100%
caspase-3
  induction of caspase-3: no induction of caspase-3
